Assay results: PMC10622577, “Structural basis for stabilisation of the RAD51 nucleoprotein filament by BRCA2” (Nature Communications, 2023)

Tests used:
RAD51 D184A = assay: EMSA of BRC4 disruption of NPF formation, RAD51 D184A; format: binding, human; details: BRC4 pre-mixed with RAD51 10 min, room temperature, before addition of ss- or dsDNA, performed once
Protocol: (§1) To test whether the acidic patch was also required for BRC4 binding to RAD51, we examined whether the interaction of a BRC4 peptide spanning BRCA2 amino acids 1514 to 1548 was impacted by the D184A and D184A, D187 mutations.
(§2) To assess RAD51 nucleoprotein (NPF) formation, wild-type and mutant RAD51 proteins were incubated with DNA in buffer: 25 mM HEPES pH 7.5, 150 mM NaCl, 2 mM DTT, 2 mM ATP, 5 mM CaCl2 for 15 minutes at room temperature. For filament binding of the TR2 peptide or His6-MBP-TR2 protein, the RAD51 NPFs were incubated with TR2 for further 5 minutes at room temperature. For filament binding of BRC4, the BRC4 peptide was pre-mixed with RAD51 for 10 minutes at room temperature before addition of DNA. For experiments with mono-streptavidin (mSA)-capped DNA, mSA (Sigma) was added in 5× molar excess of biotin labels for 15 minutes at room temperature prior to the addition of RAD51. Concentrations are provided in figures and DNA sequences for each experiment are reported in Supplementary Table 1.
(§3) Before electrophoresis, samples were mixed with a 0.5:1 volume of 50% (w/v) sucrose solution and analysed on a pre-run 0.5% (w/v) agarose gel in 0.5× TB buffer at 35 V for 2.5 hours at 4 °C. DNA was visualised by excitation of the fluorescent tag or, in the case of unlabelled DNA, by SYBR Gold staining. […]

RAD51 D184A, D187A = assay: EMSA of BRC4 disruption of NPF formation, RAD51 D184A, D187A; format: binding, human; details: BRC4 pre-mixed with RAD51 10 min, room temperature, before addition of ss- or dsDNA, performed once
Protocol: as §1, §2, §3

wild-type RAD51 NPF = assay: SPR of BRC4-induced disassembly of wild-type RAD51 NPF; format: binding, human; details: BRC4 0.1-15 μM, 120 s, CMA buffer pH 7.4, response minima, ss- and dsDNA, n = 3
Protocol: (§4) We investigated further the effect of the acidic patch mutations on TR2 binding using surface plasmon resonance (SPR). We developed an SPR assay whereby increasing amounts of TR2 peptide were added to RAD51 NPFs that had been assembled on biotinylated DNA coupled to a streptavidin chip (Supplementary Fig. 3A, Supplementary Table 1). […] We used the same SPR assay to assess the effect of the mutations on the ability of BRC4 to disrupt an established filament (Supplementary Fig. 4A, Supplementary Table 1).
(§5) All SPR experiments were performed using a Biacore T200 instrument and an S-series SA (Streptavidin) sensor chip. A single chip was used to immobilise biotinylated single- and double-stranded DNA in buffer: 25 mM HEPES pH 7.4, 100 mM NaCl, 1 mM EDTA. ssDNA and dsDNA were immobilised in different channels to a signal of 120 RU and 250 RU, respectively.
(§6) All binding experiments were performed in CMA buffer: 25 mM HEPES pH 7.4, 100 mM NaCl, 2 mM DTT, 2 mM ATP, 5 mM CaCl2, 5 mM MgCl2. 1 μM RAD51 (wild-type, D184A or D184A, D187A mutant proteins) was injected for 120 seconds followed by buffer for 120 seconds at a flow rate of 10 μl/min. TR2 or BRC4 peptides were then injected in a concentration titration series of 0.1, 0.25, 0.5, 0.75, 1, 2, 3, 5, 7.5, 10 and 15 μM for 120 seconds at a flow rate of […] followed by a dissociation time of 240 seconds. […]

RAD51 D184A NPF = assay: SPR of BRC4-induced disassembly of RAD51 D184A NPF; format: binding, human; details: BRC4 0.1-15 μM, 120 s, CMA buffer pH 7.4, response minima, ss- and dsDNA, n = 3
Protocol: as §4, §5, §6

RAD51 D184A, D187A NPF = assay: SPR of BRC4-induced disassembly of RAD51 D184A, D187A NPF; format: binding, human; details: BRC4 0.1-15 μM, 120 s, CMA buffer pH 7.4, response minima, ss- and dsDNA, n = 3
Protocol: as §4, §5, §6

RAD51;BRCA2 TR2 peptide [1] = biological target: T1, RAD51;BRCA2 TR2 peptide (Homo sapiens;Homo sapiens, UniProt Q06609;P51587 1-339;, |); assay: cryo-EM structure; mSA caps; EMSA: 25 mM HEPES pH 7.5, 150 mM NaCl, 2 mM DTT, 2 mM ATP, 5 mM CaCl2, room temperature; SPR: 25 mM HEPES pH 7.4, 100 mM NaCl, 2 mM DTT, 2 mM ATP, 5 mM CaCl2, 5 mM MgCl2; details: tags: untagged (co-expressed with His6-MBP-BRC4, pMBP4-RAD51);; label: 5' and 3' biotin
RAD51;BRCA2 TR2 peptide [2] = biological target: T1, RAD51;BRCA2 TR2 peptide; assay: cryo-EM structure; mSA caps; no bundling; EMSA: 25 mM HEPES pH 7.5, 150 mM NaCl, 2 mM DTT, 2 mM ATP, 5 mM CaCl2, room temperature; SPR: 25 mM HEPES pH 7.4, 100 mM NaCl, 2 mM DTT, 2 mM ATP, 5 mM CaCl2, 5 mM MgCl2; details: tags: untagged (co-expressed with His6-MBP-BRC4, pMBP4-RAD51);; label: 5' biotin on both strands; 3' Cy3 on strand 1; blunt ends, internal mismatched bubble about 10 nt

EKIKEPTLLGFHTASGKKVKIAKESLDKVKNLFDE [BRC4, BRC4 peptide spanning BRCA2 amino acids 1514 to 1548]
ability of BRC4 to disrupt RAD51 NPF formation (RAD51 D184A): moderately reduced
ability of BRC4 to disrupt RAD51 NPF formation (RAD51 D184A, D187A): severely impaired
disassembly of an established RAD51 NPF by BRC4 (wild-type RAD51 NPF): able to induce disassembly of a wild-type RAD51 NPF
disassembly of an established RAD51 NPF by BRC4 relative to wild-type (RAD51 D184A NPF): moderately reduced
disassembly of an established RAD51 NPF by BRC4, reduction relative to wild-type (RAD51 D184A, D187A NPF): to a large degree

B1: 60-nt ssDNA doubly biotinylated (ssDNA)
DNA: ATGGTGTGTGTAGGTTAATGTGAGGAGGAGAGGTGAAGAAGGAGGAGAGAAGAAGGAGGC
binding result (RAD51;BRCA2 TR2 peptide [1]): binds

B2: 50-nt dsDNA doubly biotinylated Cy3 (dsDNA)
DNA 1: CCGACTGACGCTCAACATAGGTACCACACGGCGAGCTCGATGCACCTCCA
DNA 2: TGGAGGTGCATCGAGCTCGCGACAAACCTTCTATGTTGAGCGTCAGTCGG
binding result (RAD51;BRCA2 TR2 peptide [2]): binds
